Experimental findings from US8227601B2, “Diaryl-purines, azapurines and -deazapurines as non-nucleoside reverse transcriptase inhibitor for treatment of HIV” (priority 2005, dated 2012) are described below.

Some results are limits rather than exact numbers.

Broadly, the EC50 is the concentration giving half of the maximal effect.

One experiment relates to wild type HIV-1. The experiment can be described thus: microbe, parasite or virus in culture. The note with it: Human immunodeficiency virus 1, Hela-JC53, read-out: EC50 WT (nM). It counts as cell-based, human immunodeficiency virus type 1 (HIV-1).
As to `Cc1cc(C#N)cc(C)c1Oc1nc(Nc2ccc(C#N)cc2)nc2c(Cl)cn(Cc3ccccc3)c12` [Cpd 56], the EC50 was 10 to 100 nM.

On to `Cc1cc(C)c(Oc2nc(Nc3ccc(C#N)cc3)nc3ccn(C)c23)c(C)c1` [Cpd 57], for which the EC50 was less than 10 nM.

As to `Cc1cc(Br)cc(C)c1Oc1nc(Nc2ccc(C#N)cc2)nc2ccn(Cc3ccccc3)c12` [Cpd 58], the EC50 fell in the range of 10 to 100 nM.

For `Cc1cc(C)c(Oc2nc(Nc3ccc(C#N)cc3)nc3c(Cl)cn(C)c23)c(C)c1` [Cpd 59], the EC50 was in the range of 10 to 100 nM.

Turning to `CC(=O)c1cc(C)c(Oc2nc(Nc3ccc(C#N)cc3)nc3ccn(Cc4ccccc4)c23)c(C)c1` [Cpd 60], the EC50 is less than 10 nM.

For `CC(=O)c1cc(C)c(Oc2nc(Nc3ccc(C#N)cc3)nc3cc[nH]c23)c(C)c1` [Cpd 61], the EC50 is less than 10 nM.

As to `Cc1cc(Cl)cc(C)c1Oc1nc(Nc2ccc(C#N)cc2)nc2c(Cl)cn(C)c12` [Cpd 62], the EC50 was less than 10 nM.

With `Cc1cc(Cl)cc(C)c1Oc1nc(Nc2ccc(C#N)cc2)nc2ccn(Cc3ccccc3)c12` [Cpd 63], the EC50 lay in the range of 10 to 100 nM.

For the compound `Cc1cc(C)c(Oc2nc(Nc3ccc(C#N)cc3)nc3ccn(Cc4ccccc4)c23)c(C)c1` [Cpd 64], the 50% effective concentration (EC50) is less than 10 nM.

On to `Cc1cccc(C)c1Oc1nc(Nc2ccc(C#N)cc2)nc2cc[nH]c12` [Cpd 65], for which the EC50 was less than 10 nM.

On to `Cc1cc(Cl)cc(C)c1Oc1nc(Nc2ccc(C#N)cc2)nc2cc[nH]c12` [Cpd 66], for which the EC50 is less than 10 nM.

Take `CC(=O)c1cc(C)c(Oc2nc(Nc3ccc(C#N)cc3)nc3c(Cl)c[nH]c23)c(C)c1` [Cpd 67]: the EC50 is less than 10 nM.

For the compound `Cc1cc(C#N)cc(C)c1Oc1nc(Nc2ccc(C#N)cc2)nc2ccn(C)c12` [Cpd 68], the EC50 was less than 10 nM.

Turning to `Cc1cc(C#N)cc(C)c1Oc1nc(Nc2ccc(C#N)cc2)nc2c(Cl)cn(C)c12` [Cpd 69], the EC50 was less than 10 nM.

As for `Cc1cc(C#N)cc(C)c1Oc1nc(Nc2ccc(C#N)cc2)nc2c(Br)cn(C)c12` [Cpd 70], the EC50 is less than 10 nM.

Consider `Cc1cc(Br)cc(Cl)c1Oc1nc(Nc2ccc(C#N)cc2)nc2cc[nH]c12` [Cpd 71], for which the EC50 was less than 10 nM.

The subject of the next experiment is HIV-1 L1001-K103N. The experiment can be described thus: microbe, parasite or virus in culture. The format is cell-based, human immunodeficiency virus type 1 (HIV-1). The note with it: Human immunodeficiency virus 1, read-out: EC50 L1001-K103N (nM), L1001-K103N mutant.
`Cc1cc(C#N)cc(C)c1Oc1nc(Nc2ccc(C#N)cc2)nc2c(Cl)cn(Cc3ccccc3)c12` [Cpd 56]: the EC50 was 10 to 100 nM.

Regarding `Cc1cc(C)c(Oc2nc(Nc3ccc(C#N)cc3)nc3ccn(C)c23)c(C)c1` [Cpd 57], the EC50 is less than 10 nM.

Regarding `Cc1cc(Br)cc(C)c1Oc1nc(Nc2ccc(C#N)cc2)nc2ccn(Cc3ccccc3)c12` [Cpd 58], the EC50 was greater than 100 nM.

In the case of `Cc1cc(C)c(Oc2nc(Nc3ccc(C#N)cc3)nc3c(Cl)cn(C)c23)c(C)c1` [Cpd 59], the EC50 is 10 to 100 nM.

Regarding `CC(=O)c1cc(C)c(Oc2nc(Nc3ccc(C#N)cc3)nc3ccn(Cc4ccccc4)c23)c(C)c1` [Cpd 60], the EC50 fell in the range of 10 to 100 nM.

`CC(=O)c1cc(C)c(Oc2nc(Nc3ccc(C#N)cc3)nc3cc[nH]c23)c(C)c1` [Cpd 61]: the EC50 was less than 10 nM.

On to `Cc1cc(Cl)cc(C)c1Oc1nc(Nc2ccc(C#N)cc2)nc2c(Cl)cn(C)c12` [Cpd 62], for which the EC50 is less than 10 nM.

Take `Cc1cc(Cl)cc(C)c1Oc1nc(Nc2ccc(C#N)cc2)nc2ccn(Cc3ccccc3)c12` [Cpd 63]: the EC50 was greater than 100 nM.

In the case of `Cc1cc(C)c(Oc2nc(Nc3ccc(C#N)cc3)nc3ccn(Cc4ccccc4)c23)c(C)c1` [Cpd 64], the EC50 was greater than 100 nM.

Take `Cc1cccc(C)c1Oc1nc(Nc2ccc(C#N)cc2)nc2cc[nH]c12` [Cpd 65]: the EC50 is greater than 100 nM.

Regarding `Cc1cc(Cl)cc(C)c1Oc1nc(Nc2ccc(C#N)cc2)nc2cc[nH]c12` [Cpd 66], the EC50 was less than 10 nM.

Turning to `CC(=O)c1cc(C)c(Oc2nc(Nc3ccc(C#N)cc3)nc3c(Cl)c[nH]c23)c(C)c1` [Cpd 67], the EC50 is less than 10 nM.

For the compound `Cc1cc(C#N)cc(C)c1Oc1nc(Nc2ccc(C#N)cc2)nc2ccn(C)c12` [Cpd 68], the EC50 is less than 10 nM.

Consider `Cc1cc(C#N)cc(C)c1Oc1nc(Nc2ccc(C#N)cc2)nc2c(Cl)cn(C)c12` [Cpd 69], for which the EC50 is less than 10 nM.

`Cc1cc(C#N)cc(C)c1Oc1nc(Nc2ccc(C#N)cc2)nc2c(Br)cn(C)c12` [Cpd 70]: the EC50 is less than 10 nM.

Consider `Cc1cc(Br)cc(Cl)c1Oc1nc(Nc2ccc(C#N)cc2)nc2cc[nH]c12` [Cpd 71], for which the EC50 is less than 10 nM.

For the next experiment, the system named is HIV-1 Y188L. The experiment can be described thus: microbe, parasite or virus in culture. The format is cell-based, human immunodeficiency virus type 1 (HIV-1). The conditions noted are these: Human immunodeficiency virus 1, read-out: EC50 Y188L (nM).
`Cc1cc(C#N)cc(C)c1Oc1nc(Nc2ccc(C#N)cc2)nc2c(Cl)cn(Cc3ccccc3)c12` [Cpd 56]: the EC50 was 10 to 100 nM.

`Cc1cc(C)c(Oc2nc(Nc3ccc(C#N)cc3)nc3ccn(C)c23)c(C)c1` [Cpd 57]: the EC50 is less than 10 nM.

For the compound `Cc1cc(Br)cc(C)c1Oc1nc(Nc2ccc(C#N)cc2)nc2ccn(Cc3ccccc3)c12` [Cpd 58], the EC50 is greater than 100 nM.

As for `Cc1cc(C)c(Oc2nc(Nc3ccc(C#N)cc3)nc3c(Cl)cn(C)c23)c(C)c1` [Cpd 59], the EC50 lay in the range of 10 to 100 nM.

For the compound `CC(=O)c1cc(C)c(Oc2nc(Nc3ccc(C#N)cc3)nc3ccn(Cc4ccccc4)c23)c(C)c1` [Cpd 60], the EC50 was in the range of 10 to 100 nM.

Take `CC(=O)c1cc(C)c(Oc2nc(Nc3ccc(C#N)cc3)nc3cc[nH]c23)c(C)c1` [Cpd 61]: the EC50 is less than 10 nM.

For the compound `Cc1cc(Cl)cc(C)c1Oc1nc(Nc2ccc(C#N)cc2)nc2c(Cl)cn(C)c12` [Cpd 62], the EC50 is less than 10 nM.

Regarding `Cc1cc(Cl)cc(C)c1Oc1nc(Nc2ccc(C#N)cc2)nc2ccn(Cc3ccccc3)c12` [Cpd 63], the EC50 was greater than 100 nM.

Take `Cc1cc(C)c(Oc2nc(Nc3ccc(C#N)cc3)nc3ccn(Cc4ccccc4)c23)c(C)c1` [Cpd 64]: the EC50 was greater than 100 nM.

Turning to `Cc1cccc(C)c1Oc1nc(Nc2ccc(C#N)cc2)nc2cc[nH]c12` [Cpd 65], the EC50 was less than 10 nM.

Consider `Cc1cc(Cl)cc(C)c1Oc1nc(Nc2ccc(C#N)cc2)nc2cc[nH]c12` [Cpd 66], for which the EC50 was less than 10 nM.

As for `CC(=O)c1cc(C)c(Oc2nc(Nc3ccc(C#N)cc3)nc3c(Cl)c[nH]c23)c(C)c1` [Cpd 67], the EC50 lay within 10 to 100 nM.

Turning to `Cc1cc(C#N)cc(C)c1Oc1nc(Nc2ccc(C#N)cc2)nc2ccn(C)c12` [Cpd 68], the EC50 was less than 10 nM.

With `Cc1cc(C#N)cc(C)c1Oc1nc(Nc2ccc(C#N)cc2)nc2c(Cl)cn(C)c12` [Cpd 69], the concentration for a half-maximal effect (EC50) is less than 10 nM.

Consider `Cc1cc(C#N)cc(C)c1Oc1nc(Nc2ccc(C#N)cc2)nc2c(Br)cn(C)c12` [Cpd 70], for which the EC50 is less than 10 nM.

As for `Cc1cc(Br)cc(Cl)c1Oc1nc(Nc2ccc(C#N)cc2)nc2cc[nH]c12` [Cpd 71], the EC50 is less than 10 nM.

A further experiment has as its system HIV-1 Y181C. The experiment can be described thus: microbe, parasite or virus in culture. The format is cell-based, human immunodeficiency virus type 1 (HIV-1). The note with it: Human immunodeficiency virus 1, read-out: EC50 Y181C (nM), Y181C mutant.
Turning to `Cc1cc(C#N)cc(C)c1Oc1nc(Nc2ccc(C#N)cc2)nc2c(Cl)cn(Cc3ccccc3)c12` [Cpd 56], the EC50 lay within 10 to 100 nM.

For the compound `Cc1cc(C)c(Oc2nc(Nc3ccc(C#N)cc3)nc3ccn(C)c23)c(C)c1` [Cpd 57], the EC50 is less than 10 nM.

Take `Cc1cc(Br)cc(C)c1Oc1nc(Nc2ccc(C#N)cc2)nc2ccn(Cc3ccccc3)c12` [Cpd 58]: the EC50 was 10 to 100 nM.

With `Cc1cc(C)c(Oc2nc(Nc3ccc(C#N)cc3)nc3c(Cl)cn(C)c23)c(C)c1` [Cpd 59], the EC50 lay in the range of 10 to 100 nM.

In the case of `CC(=O)c1cc(C)c(Oc2nc(Nc3ccc(C#N)cc3)nc3ccn(Cc4ccccc4)c23)c(C)c1` [Cpd 60], the EC50 is less than 10 nM.

On to `CC(=O)c1cc(C)c(Oc2nc(Nc3ccc(C#N)cc3)nc3cc[nH]c23)c(C)c1` [Cpd 61], for which the EC50 was less than 10 nM.

Turning to `Cc1cc(Cl)cc(C)c1Oc1nc(Nc2ccc(C#N)cc2)nc2c(Cl)cn(C)c12` [Cpd 62], the EC50 is less than 10 nM.

In the case of `Cc1cc(Cl)cc(C)c1Oc1nc(Nc2ccc(C#N)cc2)nc2ccn(Cc3ccccc3)c12` [Cpd 63], the EC50 was 10 to 100 nM.

Regarding `Cc1cc(C)c(Oc2nc(Nc3ccc(C#N)cc3)nc3ccn(Cc4ccccc4)c23)c(C)c1` [Cpd 64], the EC50 is 10 to 100 nM.

Regarding `Cc1cccc(C)c1Oc1nc(Nc2ccc(C#N)cc2)nc2cc[nH]c12` [Cpd 65], the EC50 is less than 10 nM.

For the compound `Cc1cc(Cl)cc(C)c1Oc1nc(Nc2ccc(C#N)cc2)nc2cc[nH]c12` [Cpd 66], the EC50 is less than 10 nM.

`CC(=O)c1cc(C)c(Oc2nc(Nc3ccc(C#N)cc3)nc3c(Cl)c[nH]c23)c(C)c1` [Cpd 67]: the EC50 is less than 10 nM.

As to `Cc1cc(C#N)cc(C)c1Oc1nc(Nc2ccc(C#N)cc2)nc2ccn(C)c12` [Cpd 68], the EC50 is less than 10 nM.

For `Cc1cc(C#N)cc(C)c1Oc1nc(Nc2ccc(C#N)cc2)nc2c(Cl)cn(C)c12` [Cpd 69], the EC50 is less than 10 nM.

On to `Cc1cc(C#N)cc(C)c1Oc1nc(Nc2ccc(C#N)cc2)nc2c(Br)cn(C)c12` [Cpd 70], for which the EC50 was less than 10 nM.

Consider `Cc1cc(Br)cc(Cl)c1Oc1nc(Nc2ccc(C#N)cc2)nc2cc[nH]c12` [Cpd 71], for which the concentration giving a half-maximal response (EC50) is less than 10 nM.
